From patent publication US8703811B2, “Small molecule inhibitors of Plasmodium falciparum dihydroorotate dehydrogenase” (Genzyme Corporation, priority 2008, dated 2014)
In brackets after ≈: the same amount, converted by molar mass. Where two headings read alike, the source gives them in different places.

Experiments:
pfDHODH = pfDHODH (Plasmodium falciparum (isolate 3D7), UniProt Q08210); assay: DHODH chromogen reduction (DCIP) assay, pfDHODH; format: biochemical, P. falciparum; conditions: for IC50: read-out: pfDHODH IC50
P. falciparum 3D7 = assay: Inhibition of in vitro P. falciparum culture, [3H]-hypoxanthine uptake, 3D7; format: cell-based; conditions: for EC50: read-out: 3D7 EC50; for IC50: read-out: 3D7 IC50
Method in brief: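 Parasite growth inhibition measured as relative reduction of [3H]-hypoxanthine uptake in in vitro cultures. Values from non-linear regression fit, using relative growth velocity in place of product-formation rate.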

Solubility measurement = format: physicochemical
Excerpt: Many standard techniques are known in the art to establish the solubility of a compound in a particular solvent. The following description is one such technique that could be used to determine the solubility: Equilibrium solubility measurements start with the solid form of the compound (crystalline form preferred). The powder is physically mixed with an aqueous buffer (defined pH) until equilibrium is reached. Either centrifugation or filtration can be used to separate the solution from the remaining solid. The amount dissolved in the solution can be determined by any one of many known methods including HPLC or UV/Vis spectroscopic techniques.

Log D measurement = format: physicochemical
Excerpt: Many standard techniques are known in the art to establish the distribution coefficient of a compound between two particular solvents. The following description is one such technique that could be used to determine the distribution coefficient: The shake-flask method, which consists of dissolving some of the compound in a volume of octanol and water, then physically shaking the mixture and allowing the two solvents to fully separate. The concentration of the compound in each solvent is then measured. The most common method of measuring the distribution of the solute is by HPLC or UV/Vis spectroscopic techniques.

[1] = Renal Proximal Tubule Epithelial Cell Toxicity Screen; format: cell-based
Method: The Renal Proximal Tubule Epithelial Cell Toxicity Screen is designed to determine whether compound mixtures, breakouts or single compounds are toxic to normal renal epithelial cells. […] Basically, the screen consists of plating renal epithelial cells, exposing them to the desired compound(s) for 4 days and measuring cell viability using the Alamar Blue reagent.
Harvested Kidney Epithelial cells were diluted in REGM to 1.5×10^4 cells/mL. […] NOTE: One plate, the T=0 plate required that 20-30 wells be seeded, and all the other plates had 96 wells seeded. Plates were incubated in 37° C./5% CO2 incubator for 24 hours.
(§1) Alamar Blue solution (25 μL/well) was added to the T=0 plate and mixed. The plate was incubated in 37° C./5% CO2 incubator for 4 hours, mixed and then the fluorescence was measured. 10% Tween 20 stock (10 μL) was added into rows A-D in column 1 (positive control). DMSO (0.5 μL) was added into column 2 (negative control). Compounds were placed into designated wells for desired testing as follows:
Plates were mixed on the shaker, and then incubated in 37° C./5% CO2 incubator for 96 hours. Day 6:
Alamar Blue solution (25 μL/well) was added to the plates containing the compounds and mixed. Plates were incubated in 37° C./5% CO2 incubator for 4 hours, mixed and the fluorescence was measured.

[2] = Normal Human Dermal Fibroblast Toxicity Screen; format: cell-based; conditions: human, normal human dermal fibroblasts; four days exposure, Alamar Blue; read-out: Dermal Fibroblast LC50
Method: The Normal Human Dermal Fibroblast Toxicity Screen Protocol is designed to determine whether compound mixtures, breakouts or single compounds are toxic to normal human dermal fibroblasts. The screen involves plating the dermal fibroblasts and then exposing them to the compounds for four days, then cell viability is measured using Alamar Blue reagent.
Harvested Dermal Fibroblast cells were diluted in Growth Media to 0.25 to 0.3×10^5 cells/mL. […] NOTE: One plate, the T=0 plate required that 20-30 wells be seeded and all the other plates had 96 wells seeded. Plates were incubated in 37° C./5% CO2 incubator for 24 hours.
as §1, with “the plate was agitated.” for “mixed.”, “plate” for “plate was incubated”, “incubator was incubated” for “incubator”, “3” for “4”, “agitated the” for “mixed”, “and” for “and then”
Plates were mixed on the shaker, then incubated in 37° C./5% CO2 incubator for 96 hours.
Alamar Blue solution (25 μL/well) was added to the plates containing the compounds, and the plates were agitated. The plates were incubated in 37° C./5% CO2 incubator for 3 hours, agitated and then the fluorescence was measured.

[3] = Table 3, DCIP assay, 20 nM pfDHODH
[4] = Plasmodium falciparum, 3D7, Table 2b
[5] = Plasmodium falciparum, 3D7, Table 3, [3H]-hypoxanthine uptake
[6] = aqueous buffer, thermodynamic from solid, read-out: Solubility

Sequence of pfDHODH (Q08210 159-565 limits assumed): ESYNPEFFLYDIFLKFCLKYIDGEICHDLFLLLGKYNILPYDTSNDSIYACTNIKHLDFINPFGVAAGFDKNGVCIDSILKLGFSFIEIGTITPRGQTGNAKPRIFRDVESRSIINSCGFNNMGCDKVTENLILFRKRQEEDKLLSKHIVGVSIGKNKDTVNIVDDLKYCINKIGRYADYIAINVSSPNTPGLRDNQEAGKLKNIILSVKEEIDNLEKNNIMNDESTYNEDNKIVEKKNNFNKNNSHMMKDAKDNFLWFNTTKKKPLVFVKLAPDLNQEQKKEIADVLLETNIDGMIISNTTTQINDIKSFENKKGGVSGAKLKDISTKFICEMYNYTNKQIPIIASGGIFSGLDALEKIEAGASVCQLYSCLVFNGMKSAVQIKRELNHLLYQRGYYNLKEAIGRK

| Compound | IC50 (pfDHODH; Table 2b) [nM] | IC50 (pfDHODH; [3]) [nM] | EC50 (P. falciparum 3D7; [4]) [nM] | IC50 (P. falciparum 3D7; [5]) [nM] | solubility (Solubility measurement; [6]) [µg/mL] | logD (Log D measurement; octanol/water, read-out: LogD) | CC50 at 96 h [1] [nM] | CC50 at 96 h [2] [nM] | inhibition at 50 µM (pfDHODH; 50 μM inhibitor, 200 μM L-DHO, 100 μM CoQD, 60 μM DCIP, read-out: % Inhibition of Product Formation Rate with 50 μM Inhibitor, CoQD) [%] | IC50 (pfDHODH; DCIP assay, 200 μM L-DHO, 18 μM CoQD, 100 μM DCIP, 20 nM enzyme) [nM] | IC50 (P. falciparum 3D7; Plasmodium falciparum, 3D7, Erythrocyte, [3H]-hypoxanthine uptake by parasite infected erythrocytes) [nM] | EC50 (P. falciparum 3D7; Table 2b) [nM] | IC50 (P. falciparum 3D7; Table 3, [3H]-hypoxanthine uptake) [nM] | solubility (Solubility measurement) [µg/mL] | logD (Log D measurement) |
| --- | --- | --- | --- | --- | --- | --- | --- | --- | --- | --- | --- | --- | --- | --- | --- |
| CCCNC(=O)c1ccc(-n2c(C)nc3ccccc32)s1 [Compound 12, 5-(2-methyl-1H-benzo[d]imidazol-1-yl)-N-propylthiophene-2-carboxamide] | 172 | 170 | 628 | 630 | > 30 | 3.4 | > 62000 | > 62000 | – | – | – | – | – | – | – |
| CCCNC(=O)c1ccc(-n2cnc3ccccc32)s1 [Compound 11, 5-(1H-benzo[d]imidazol-1-yl)-N-propylthiophene-2-carboxamide] | 703 | 700 | 472 | 470 | > 30 | 3.3 | > 62000 | > 62000 | – | – | – | – | – | – | – |
| CCCNC(=O)c1ccc(-n2c(C)cc3ccccc32)s1 [Compound 1, 5-(2-methyl-1H-indol-1-yl)-N-propylthiophene-2-carboxamide] | 64 | 70 | 386 | 390 | 0.9 (≈ 3.02 µM) | > 3.5 | > 62000 | > 62000 | 104 | 42 ± 7 | 470 | – | – | – | – |
| 5-(1H-indol-1-yl)-N-propylthiophene-2-carboxamide [Compound 7] | 459 | 460 | – | – | – | – | – | – | – | – | – | 708 | 710 | 1 | >3.5 |
